Data: patent US10493043B2, “Pharmaceutical composition for preventing or treating autoimmune diseases comprising cedrol or derivatives thereof, or pharmaceutically acceptable salts thereof” (University of Seoul Industry Cooperation Foundation, priority 2017, dated 2019)

Experiments:
psoriasis induced mice [1] = test: Hair regrowth in psoriasis induced mice after termination of imiquimod application; assay type: in vivo, mouse; conditions: oral 100 mg/kg
Protocol: (§1) Imiquimod was applied to the psoriasis induced mice which had developed psoriasis for a week in Example <2-1>. The application was stopped 8 days after the application began. The groups CON and IMQ were treated with distilled water, the group C was treated with cedrol, the group CA was treated with cedryl acetate, the group CE was treated with alpha-cedrene alone at the concentration of 100 mg/kg in 200 ? , every day via oral-administration. Day 8 was the day the imiquimod application was stopped, since then the compounds were administered for 1 week once a day, during which photo-recording was performed (FIGS. 13A˜13D).
The psoriasis induced mice orally administered with cedrol, cedryl acetate, and alpha-cedrene of Example <3-1> were observed by the naked eye, and the number of mice showing hair regrowth was counted.

human IL-17A expression = test: IL-17A inhibition assay in IL-17 luciferase-(LUCPorter) stable reporter cell line; conditions: 10, 100, 1,000 μg/ml
psoriasis induced mice [2] = test: Delay of psoriasis development in imiquimod-induced mice (ear thickness, keratosis, skin flair, pain, hemorrhage spots, wrinkles); assay type: in vivo, mouse; conditions: for cumulative psoriasis area severity index (ear thickness, keratosis, skin flair), in words: oral 100 mg/kg once a day, FIG. 7; for number of mice showing hemorrhage spots / number of mice showing skin wrinkles / number of mice showing skin pain: oral 100 mg/kg
Protocol: (§2) To investigate the delayed effect of cedrol, cedryl acetate, and alpha-cedrene on the development of psoriasis, total 5 groups of mice were prepared (8 mice/group). First, the hair of the entire back of the 8-week-old male Balb/c mouse whose immune system was weakened was removed by using a hair clipper (Kimlaube Hair pen 325,327, Rikei, Korea). In the middle of the shaved back of the mouse, 2 mg of imiquimod (3M Health Care Limited, England) was applied in the area of 2 cm×1.5 cm and also 1,125 mg of imiquimod was applied on the right ear of the mouse every day once a day to induce psoriasis.
The mice prepared above were divided into the distilled water treated group (IMQ), the cedrol treated group (C), the cedryl acetate treated group (CA), and the alpha-cedrene treated group (CE). At this time, the mice were orally treated with distilled water at the concentration of 200 ? /mouse and cedrol or its derivatives at the concentration of 200 ? /mouse (100 mg/kg). The day when distilled water or the compound administration started was recorded as day 0 and the administration was performed once a day for a week, during which photo-recording was performed every day (FIGS. 2A˜2D). In the meantime, instead of applying imiquimod, 40 mg of vaseline was applied on the back of the control group (CONT) and 22.5 mg of vaseline was applied on the right ear of the control group. And the control group was orally administered with distilled water (200 ? /mouse).
Then, the psoriasis area severity index (PASI) was calculated with the range of 1˜4 to confirm the reduction effect of the compounds on the ear thickness.
Then, the psoriasis area severity index (PASI) was calculated to confirm the reduction effect of the compounds on keratosis. Keratosis is a symptom of psoriasis. The application of IMQ can induce keratosis.
Then, the psoriasis area severity index (PASI) was calculated to confirm the reduction effect of the compounds on skin flair. Skin flair is a symptom of psoriasis. The application of IMQ can induce skin flair.
The psoriasis area severity index obtained in Examples <2-3> and <2-5> was accumulated to compare the psoriasis area severity index for ear thickness, keratosis and skin flair of the mouse groups respectively treated with cedrol, cedryl acetate, and alpha-cedrene via oral-administration.
When the back of the psoriasis induced mice orally administered with cedrol, cedryl acetate, and alpha-cedrene of Example <2-1> was pinched, those mice who sound painfully with strong rejection were counted. Skin pain is a symptom of psoriasis, and when IMQ is applied, skin pain becomes stronger as time goes by.
The psoriasis induced mice orally administered with cedrol, cedryl acetate, and alpha-cedrene of Example <2-1> were observed by the naked eye, and the number of mice showing hemorrhage spots was counted. Hemorrhage spot is a symptom of psoriasis, and when IMQ is applied, the number of skin hemorrhage spots increases as time goes by.
The psoriasis induced mice orally administered with cedrol, cedryl acetate, and alpha-cedrene of Example <2-1> were observed by the naked eye, and the number of mice showing skin wrinkles was counted. Skin wrinkle is a symptom of psoriasis, and when IMQ is applied, skin keratinization increases and accordingly skin wrinkles are formed as time goes by.

psoriasis induced mice [3] = test: Therapeutic (recovery) effect in psoriasis induced mice after termination of imiquimod application; assay type: in vivo, mouse; conditions: for PASI reflecting skin flair: distilled water 0.7±0.6; for number of mice showing hemorrhage spots / number of mice showing skin wrinkles: oral 100 mg/kg
Protocol: as §1
The psoriasis area severity index (Psoriasis Area Severity Index, PASI) was given from the point 1 to point 4, based on which the recovery effect on the ear thickness was evaluated.
Then, the psoriasis area severity index (Psoriasis Area Severity Index, PASI) was calculated, based on which the recovery effect on keratosis was evaluated.
The psoriasis area severity index obtained in Examples <3-2> and <3-4> was accumulated to compare the psoriasis area severity index for ear thickness, keratosis and skin flair of the mouse groups respectively treated with cedrol, cedryl acetate, and alpha-cedrene via oral-administration.
The psoriasis induced mice orally administered with cedrol, cedryl acetate, and alpha-cedrene of Example <3-1> were observed by the naked eye, and the number of mice showing the recovery of hemorrhage spots was counted.
The psoriasis induced mice orally administered with cedrol, cedryl acetate, and alpha-cedrene of Example <3-1> were observed by the naked eye, and the number of mice showing the recovery of skin wrinkles was counted.

[4] = Weight changes in psoriasis induced mice during oral administration; assay type: in vivo, mouse; conditions: oral 100 mg/kg once a day during IMQ application, for 7 days; IMQ alone reduced by 0.48 g
Protocol: as §2
The mice prepared above were divided into the distilled water treated group (IMQ), the cedrol treated group (C), the cedryl acetate treated group (CA), and the alpha-cedrene treated group (CE). […] The day when distilled water or the compound administration started was recorded as day 0 and the administration was performed once a day for a week, during which photo-recording was performed every day (FIGS. 2A˜2D). […]
To compare the weight changes in the psoriasis induced mice according to the oral administration of cedrol, cedryl acetate, and alpha-cedrene of Example <2-1>, the weight of each mouse was measured at the same time every day for a week.

[5] = day 7, 8 mice/group, IMQ alone 3 mice
[6] = day 7, 8 mice/group, IMQ alone 5 mice
[7] = oral 100 mg/kg once a day, day 16
[8] = day 16, distilled water 1 mouse
[9] = day 16, distilled water one mouse
[10] = oral 100 mg/kg once a day, day 15

Structure (SMILES)	number of mice showing hair regrowth (psoriasis induced mice [1]; day 16, distilled water 5 mice)	suppression of the expression of IL-17A (in words) (human IL-17A expression)	cumulative psoriasis area severity index (ear thickness, keratosis, skin flair), in words (psoriasis induced mice [2])	number of mice showing hemorrhage spots (psoriasis induced mice [2]; day 5, 8 mice/group)	number of mice showing skin wrinkles (psoriasis induced mice [2]; [5])	number of mice showing hemorrhage spots (psoriasis induced mice [2]; [6])	PASI reflecting skin flair (psoriasis induced mice [3]; [7])	number of mice showing hemorrhage spots (psoriasis induced mice [3]; [8])	number of mice showing skin wrinkles (psoriasis induced mice [3]; [9])	number of mice showing skin wrinkles (psoriasis induced mice [2]; day 5, 8 mice/group)	also measured
CC1=CC[C@@]23C[C@@H]1C(C)(C)[C@@H]2CC[C@H]3C [alpha-cedrene, Alpha-cedrene]	all the mice	dose-dependently	strongest reduction effect	two mice	one mouse	one mouse	disappeared	no mouse	no mouse		number of mice showing hair regrowth (psoriasis induced mice [1]; day 13): one mouse; number of mice showing skin wrinkles (psoriasis induced mice [2]; day 6, 8 mice/group): one mouse; number of mice showing skin pain (psoriasis induced mice [2]; during the 7 day observation period): no mice
C[C@@H]1CC[C@H]2C(C)(C)[C@H]3C[C@@]12CC[C@@]3(C)O [cedrol, Cedrol]	all the mice	dose-dependently					disappeared			one mouse	weight change (increase) [4]: 0.025 g; number of mice showing hemorrhage spots (psoriasis induced mice [2]; day 4, 8 mice/group): one mouse; number of mice showing skin pain (psoriasis induced mice [2]; day 4, 8 mice/group): one mouse; number of mice showing skin pain (psoriasis induced mice [2]; day 5, 8 mice/group): no mice; cumulative psoriasis area severity index (ear thickness, keratosis, skin flair), recovery in words (psoriasis induced mice [3]; oral 100 mg/kg once a day, FIG. 17): strongest recovery effect; PASI reflecting keratosis (psoriasis induced mice [3]; [10]): recovered to normal; number of mice showing skin wrinkles (psoriasis induced mice [3]; after day 15): no mouse; number of mice showing hemorrhage spots (psoriasis induced mice [3]; day 12): no mouse
CC(=O)O[C@]1(C)CC[C@@]23C[C@@H]1C(C)(C)[C@@H]2CC[C@H]3C [cedryl acetate, Cedryl acetate]		dose-dependently	strongest reduction effect	one mouse	one mouse	one mouse		no mouse	no mouse	one mouse	number of mice showing hair regrowth (psoriasis induced mice [1]; day 14, distilled water one mouse): one mouse; number of mice showing skin pain (psoriasis induced mice [2]; day 6, 8 mice/group): one mouse; number of mice showing skin pain (psoriasis induced mice [2]; [6]): no mice; PASI reflecting the ear thickness (psoriasis induced mice [3]; [10]): recovered to normal
